Experimental data published in patent publication US6375928B1, “Neutrophil stimulating peptides” (Peptech Limited, priority 1990, dated 2002).

Tests used:
Type in all cases: cell-based
human neutrophils [1] = experiment: Chemiluminescence assay: priming of neutrophils for F-met-leu-phe response (respiratory burst); conditions: peptide alone
neutrophils [2] = experiment: Superoxide formation, cytochrome reduction assay
Source text: The effect of peptides 308 and 309 (SEQ ID NOs. 10 & 11) on superoxide formation was examined by the cytochrome reduction assay, according to the procedure of Ferrante, 1989 (Infection and Immunity), 57: 2115-2122). The results, expressed as n moles of O2/5×10^5 cells as set out in Table 6.

neutrophils [3] = experiment: Neutrophil random migration out of wells in agarose
Source text: Migration of cells is an important property by which cells reach infection sites. Their accumulation at these sites is also dependent on the capacity of inflammatory mediators to inhibit their migration out of the sites.

neutrophils [4] = experiment: Chemotactic properties, neutrophil migration under agarose; conditions: towards agent well; 1 × 10^−7 M fMLP, peptide, or 10^3 U/ml TNFα; 2×10^5 neutrophils
Experimental: 5 μl of neutrophils (2×10^5 cells) were added to the inner well, with chemotactic agent or control medium added to the outer wells. Migration at various time intervals was then measured.

human neutrophils [5] = experiment: Chemiluminescence assay: priming of neutrophils for F-met-leu-phe response (respiratory burst); conditions: for lucigenin dependent chemiluminescence, peak of response: 20 min pretreatment before f-met-leu-phe; for chemiluminescence (repeat experiment, Table 3): peptide + fMLP
Experimental: Purified human neutrophils were pretreated with peptide for 20 minutes before the addition of f-met-leu-phe. The lucigenin dependent chemiluminescence response, which reflects superoxide production, was then measured. The results obtained are set out in Table 2 and are expressed as mV of lucigenin dependent chemiluminescence and represent the maximal cell activity attained.
Results are expressed as mV of lucigenin dependent chemiluminescence and represent peak of response i.e. the maximal cell activity attained.

neutrophils [6] = experiment: Neutrophil degranulation: β-glucuronidase release (azurophilic granules); conditions: for β-glucuronidase release, Exp. 1 / β-glucuronidase release, Exp. 2 / β-glucuronidase release, Exp. 3 / β-glucuronidase release, Exp. 4: in the presence of CytoB
neutrophils [7] = experiment: Neutrophil degranulation: Vitamin B12 binding protein release (specific granules); conditions: for Vitamin B12 Binding Protein, Exp. 1 / Vitamin B12 Binding Protein, Exp. 2 / Vitamin B12 Binding Protein, Exp. 3 / Vitamin B12 Binding Protein, Exp. 4: in the presence of CytoB
[8] = peptide 100 μg/10^6 cells (or HBSS) + fMLP
[9] = peptide 100 μg/10^6 cells, no fMLP

## HVLLTHTISRIAVSYQTKVNLL (HVLLTHTISRIAVSYQTKVNLL) [Peptide 309]
Human neutrophils [1]; 10 μg/10^6 cells
  chemiluminescence (repeat experiment, Table 3): 0.31 mV
Human neutrophils [1]; 100 μg/10^6 cells
  chemiluminescence (repeat experiment, Table 3): 0.69 mV
Neutrophils [2]; peptide + fMLP, 10 μg/5 × 10^5 cells
  superoxide formation: 3.87 n moles of O2/5×10^5 cells
Neutrophils [2]; peptide + fMLP, 100 μg/5 × 10^5 cells
  superoxide formation: 5.14 n moles of O2/5×10^5 cells
Neutrophils [2]; peptide alone, 10 μg/5 × 10^5 cells
  superoxide formation: 0.62 n moles of O2/5×10^5 cells
Neutrophils [2]; peptide alone, 100 μg/5 × 10^5 cells
  superoxide formation: 2.30 n moles of O2/5×10^5 cells
Neutrophils [3]
  effect on neutrophil random migration (in words): potent inhibitors of neutrophil migration
Neutrophils [3]; 10 μg/10^6 cells
  Inhibition of Migration: 0%
Neutrophils [3]; 100 μg/10^6 cells
  Inhibition of Migration: 100%
Neutrophils [4]
  Migration distance at 1.5 h, Agent: 0.53 mm
  Migration distance at 2.5 h, Agent: 0.68 mm
Human neutrophils [5]
  neutrophil stimulating activity / stimulation of neutrophil respiratory burst (in words): neutrophil stimulating activity
  priming of neutrophils for the respiratory burst associated with f-met-leu-phe treatment (in words): found to prime human neutrophils for the respiratory burst
Human neutrophils [5]; 100 ug peptide, second, Table 4
  Chemiluminescence, neutrophil respiratory burst: 4.70 mV
Human neutrophils [5]; peptide 1 μg/10^6 cells
  lucigenin dependent chemiluminescence, peak of response: 0.38 mV
Human neutrophils [5]; peptide 10 μg/10^6 cells
  lucigenin dependent chemiluminescence, peak of response: 0.98 mV
Human neutrophils [5]; peptide 100 μg/10^6 cells
  lucigenin dependent chemiluminescence, peak of response: 13.44 mV
Human neutrophils [5]; 10 μg/10^6 cells
  chemiluminescence (repeat experiment, Table 3): 2.46 mV
Human neutrophils [5]; 100 μg/10^6 cells
  chemiluminescence (repeat experiment, Table 3): 12.84 mV

## LFKGQGCPSTHVLLTHTISRI (LFKGQGCPSTHVLLTHTISRI) [Peptide 304]
Neutrophils [6]; absence of fMLP
  release from azurophilic granules (β-glucuronidase), in words: no effect
Neutrophils [6]; [8]
  β-glucuronidase release, Exp. 1: 26.95%
  β-glucuronidase release, Exp. 2: 36.43%
  β-glucuronidase release, Exp. 3: 35.34%
  β-glucuronidase release, Exp. 4: 36.65%
Neutrophils [6]; [9]
  β-glucuronidase release, Exp. 1: 3.63%
  β-glucuronidase release, Exp. 2: 3.14%
  β-glucuronidase release, Exp. 3: 2.52%
  β-glucuronidase release, Exp. 4: 9.82%
Neutrophils [6]; presence of fMLP
  release from azurophilic granules (β-glucuronidase), in words: not azurophilic granules
Human neutrophils [1]; 10 μg/10^6 cells
  chemiluminescence (repeat experiment, Table 3): 0.36 mV
Human neutrophils [1]; 100 μg/10^6 cells
  chemiluminescence (repeat experiment, Table 3): 0.64 mV
Neutrophils [7]; absence of fMLP
  release from specific granules (Vitamin B12 binding protein), in words: no effect
Neutrophils [7]; [8]
  Vitamin B12 Binding Protein, Exp. 1: 43.76
  Vitamin B12 Binding Protein, Exp. 2: 35.60
  Vitamin B12 Binding Protein, Exp. 3: 59.15
  Vitamin B12 Binding Protein, Exp. 4: 37.12
Neutrophils [7]; [9]
  Vitamin B12 Binding Protein, Exp. 1: 11.40
  Vitamin B12 Binding Protein, Exp. 2: 10.82
  Vitamin B12 Binding Protein, Exp. 3: 13.06
  Vitamin B12 Binding Protein, Exp. 4: 8.42
Neutrophils [7]; presence of fMLP
  release from specific granules (Vitamin B12 binding protein), in words: enhanced release from specific granules
Neutrophils [3]
  effect on neutrophil random migration (in words): chemokinetic
Neutrophils [3]; 10 μg/10^6 cells
  Inhibition of Migration: −43%
Neutrophils [3]; column headed 0 μg/10^6 cells
  Inhibition of Migration: −16%
Neutrophils [4]
  Migration distance at 1.5 h, Agent: 0.47 mm
  Migration distance at 2.5 h, Agent: 0.72 mm
Human neutrophils [5]
  neutrophil stimulating activity / stimulation of neutrophil respiratory burst (in words): neutrophil stimulating activity
  priming of neutrophils for the respiratory burst associated with f-met-leu-phe treatment (in words): found to prime human neutrophils for the respiratory burst
Human neutrophils [5]; peptide 1 μg/10^6 cells
  lucigenin dependent chemiluminescence, peak of response: 0.18 mV
Human neutrophils [5]; peptide 10 μg/10^6 cells
  lucigenin dependent chemiluminescence, peak of response: 0.43 mV
Human neutrophils [5]; peptide 100 μg/10^6 cells
  lucigenin dependent chemiluminescence, peak of response: 2.56 mV
Human neutrophils [5]; peptide 500 μg/10^6 cells
  lucigenin dependent chemiluminescence, peak of response: 2.76 mV
Human neutrophils [5]; 10 μg/10^6 cells
  chemiluminescence (repeat experiment, Table 3): 0.91 mV
Human neutrophils [5]; 100 μg/10^6 cells
  chemiluminescence (repeat experiment, Table 3): 6.97 mV
